# Experimental data reported in patent US20130345234A1, “FGFR AND LIGANDS THEREOF AS BIOMARKERS FOR BREAST CANCER IN HR POSITIVE SUBJECTS” (priority 2011, published 2013).
# Key:
# [1] = test system: breast cancer cells; assay: Model of disseminated disease: liver colonization from a subcutaneous xenograft primary; type: in vivo; conditions: mice; subcutaneous (SC) xenograft primary; oral treatment
# Procedure: (§1) Inhibition was observed up to 24 hours in certain models.
# [2] = test system: FGFR downstream-signaling proteins AKT and ERK; assay: Tyrosine phosphorylation of FGFR downstream-signaling proteins in xenograft tumors; type: in vivo, mice; conditions: following a single oral dose
# Procedure: as §1
# [3] = Phase 2 trial of dovitinib: adverse events; type: in vivo, human; conditions: as of January 2011
# Procedure: Patient selection was performed according to FISH/CISH for FGFR1 (cut-off≧6 gene copies). […] The primary endpoint was RECIST best overall response rate in pts with measurable disease per external radiology review.
# Inclusion Criteria: • 1. Patients have histological confirmation of breast carcinoma with a clinical diagnosis of IBC based on presence of inflammatory changes in the involved breast, including diffuse erythema and edema (peau d orange), with or without an underlying palpable mass involving the majority of the skin of the breast. Pathological evidence of dermal lymphatic invasion should be noted but is not required for diagnosis. • 2. Patients have stage IV disease with local or distant relapse • 3. Patients have negative HER2 expression by IHC (defined as 0 or 1+), or FISH (fluorescence in situ hybridization). If HER2 is 2+, negative HER2 expression must be confirmed by FISH. • 4. Patients are able to swallow and retain oral medication. • 5. Patients have ECOG performance status 0-2. • 6. Patients have received up to 3 standard chemotherapies for metastatic disease and have relapsed. • 7. Patients have ability and willingness to sign written informed consent. • 8. Patients are 18 years of age or older. • 9. Female patients of childbearing potential (A person not free from menses>2 years or not surgically sterilized) must be willing to use two adequate barrier methods of contraception to prevent pregnancy or agree to abstain from heterosexual activity throughout the study. • 10. Female patients of childbearing potential must have negative serum pregnancy test. • 11. If Patients have been treated with anti-VEGF agents, such as Bevacizumab, last dose must be >4 weeks. • 12. Patients have biopsy tissue of the metastatic disease (including chest wall or regional nodes) available (paraffin blocks or up to 20 unstained slides), if no biopsy tissue available, a biopsy (or thoracentesis if patient has pleural effusion only) of the metastatic disease will be performed to confirm the diagnoses.
# Exclusion Criteria: • 1. Patients are receiving concurrent anti-cancer therapy (chemotherapy, immunotherapy, radiation therapy and biological therapy) while taking study medication. • 2. Abnormal liver functions consisting of any of the following: a) Serum bilirubin>/=1.5×ULN, b) AST and ALT>/=2.5×ULN, (for patients with known liver metastasis, AST and ALT</=5×ULN is allowed), ANC<1.5. • 3. Patients have an active infection and require IV or oral antibiotics. • 4. Impaired cardiac function or clinically significant cardiac diseases, including any of the following: a) History or presence of serious uncontrolled ventricular arrhythmias or presence of atrial fibrillation; b) Clinically significant resting bradycardia (<50 beats per minute); c) LVEF<45% assessed by 2-D echocardiogram (ECHO) or Multiple gated acquisition scanning (MUGA); d) Any of the following within 6 months prior to study entry: myocardial infarction (MI), severe/unstable angina, Coronary Artery Bypass Graft (CABG), Congestive Heart Failure (CHF), Cerebrovascular Accident (CVA), Transient Ischemic Attack (TIA), Pulmonary Embolism (PE); e) Uncontrolled hypertension defined by an SBP>150 and/or a DBP>100 mm Hg with or without anti-hypertensive medication. • 5. History of gastrointestinal disorders (medical disorders or extensive surgery) which may interfere with the absorption of the study drug. • 6. Patients have a concurrent disease or condition that would make them inappropriate for study participation, or any serious medical disorder that would interfere with patients' safety. • 7. Patients with only locally or regionally confined disease without evidence of metastatic disease.
# [4] = test system: tumor xenograft models; assay: Antitumor activity in tumor xenograft models in athymic mice; type: in vivo; conditions: administered orally, all models tested
# Procedure: as §1
smiles,measurement,setting,value
"CN1CCN(c2ccc3nc(-c4c(N)c5c(F)cccc5[nH]c4=O)[nH]c3c2)CC1 [dovitinib, 4-amino-5-fluoro-3-[6-(4-methylpiperazin-1-yl)-1H-benzimidazol-2-yl]-1H-quinolin-2-one]",colonization of breast cancer cells in the livers,[1],significantly reduced
same,duration of inhibition of AKT and ERK phosphorylation,[2]; certain models,up to 24 hours
same,tyrosine phosphorylation of AKT and ERK,[2]; xenograft tumors,inhibited
same,"adverse event: asthenia, Group 3",[3]; Group 3,17%
same,"adverse event: diarrhea, Group 3",[3]; Group 3,6%
same,"adverse event: nausea, Group 3",[3]; Group 3,5%
same,adverse event: vomiting,"[3]; all grades, 77 patients with data, 500 mg once daily, 5-day on/2-day off",75%
same,adverse event: asthenia,[3]; all grades,61%
same,adverse event: diarrhea,[3]; all grades,72%
same,adverse event: nausea,[3]; all grades,62%
same,"adverse event: vomiting, grade 3 [Group 3]",[3]; grade 3,6%
same,antitumor activity in tumor xenograft models,[4],"anti-tumor responses, ranging from growth inhibition and stasis to regression"
